Structures can show the parent of a compound that is named as a salt.
Experiments:
[1] = tested on: cells expressing a MPRIP-NTRK1 fusion protein including Trk inhibitor resistance mutations; assay: Proliferation (percent of control) of cells expressing mutant MPRIP-NTRK1 fusion; assay type: cell-based; conditions: TrkA substitutions V573M, F589L, G667S
Procedure: In the genetic screen cDNAs harboring the MPRIP-NTRK1 oncogene were introduced into Ba/F3 cells. The Ba/F3 cells were treated with the mutagen, 100 μg/mL N-ethyl-N-nitrosourea (ENU; Sigma Aldrich, St. Louis, Mo.), overnight. […] At confluence, the cells were collected and genomic DNA was extracted. The NTRK1 kinase region was amplified and the PCR products were purified and sequenced. A plasmids encoding MPRIP-NTRK1 mutations were generated with QuickChange site-directed mutagenesis according to the manufacturer's instructions using a sequence encoding a wildtype MPRIP-NTRK1 fusion protein as a template. Each mutation was confirmed by DNA sequencing. The Ba/F3 cells and NIH353 cells expressing MPRIP-NTRK1 mutants were generated by infecting Ba/F3 and NIH353 parental cells with lentivirus encoding the mutation MPRIP-NTRK1 fusion proteins, followed by selection with puromycin.

[2] = tested on: TRKB and ERK1/2 activation in NIH3T3 cells expressing TRIM24-NTRK2 fusions; assay: Western blot analysis of NIH3T3 cells expressing TRIM24-NTRK2 fusions; assay type: cell-based; conditions: 2 hours
Procedure: FIG. 11 is a photograph of a Western blot analysis of NIH3T3 cells treated with the indicated concentrations of (S)—N-(5-((R)-2-(2,5-difluorophenyl)pyrrolidin-1-yl)pyrazolo[1,5-a]pyrimidin-3-yl)-3-hydroxypyrrolidine-1-c[…] (Cmpd A) for 2 hours.
Ba/F3 cells stably expressing MPRIP-NTRK1 or TRIM24-NTRK2 were treated overnight with […] N-Ethyl-N-nitrosourea (ENU), pelleted, resuspended in fresh media, and distributed in 96-well plates in 200 μL media supplemented with (S)—N-(5-((R)-2-(2,5-DIFLUOROPHENYL)PYRROLIDIN-1-YL)PYRAZOLO[1,5-A]PYRIMIDIN-3-YL)-3-HYDROXYPYRROLIDINE-1-C[…] (100, 250, and 500 nM). […] The contents of outgrown wells were expanded in 12-well plates in media supplemented with (S)—N-(5-((R)-2-(2,5-DIFLUOROPHENYL)PYRROLIDIN-1-YL)PYRAZOLO[1,5-A]PYRIMIDIN-3-YL)-3-HYDROXYPYRROLIDINE-1-C[…] at the same concentration as in the initial 96-well plate. At confluence, cells were collected and genomic DNA was extracted. The NTRK1 and NTRK2 kinase region was PCR-amplified and sequenced. Plasmids encoding MPRIP-NTRK1 and TRIM24-NTRK2 mutations were generated with QuickChange site-directed mutagenesis and confirmed by DNA sequencing. Ba/F3 cells and NIH3T3 cells expressing MPRIP-NTRK1 mutants were generated by infecting Ba/F3 and NIH3T3 parental cells with lentivirus encoding MPRIP-NTRK1 mutation followed by selection with puromycin.

[3] = tested on: TRKA and ERK1/2 activation in NIH3T3 cells expressing MPRIP-NTRK1 fusions; assay: Western blot analysis of NIH3T3 cells expressing MPRIP-NTRK1 fusions; assay type: cell-based; conditions: 2 hours
[4] = tested on: cells expressing a TRIM24-NTRK2 fusion protein including TrkB inhibitor resistance mutations; assay: Proliferation (percent of control) of cells expressing mutant TRIM24-NTRK2 fusion; assay type: cell-based; conditions: Example 3; TrkB substitutions V601G, G623S, R630K
Procedure: N-ethyl-N-nitrosourea (ENU)-exposed Ba/F3-MPRIP-NTRK1 and Ba/F3-TRIM24-NTRK2 cells were used to generate mutations permitting growth of Ba/F3 cells in the absence of IL-3 despite the presence of 100, 250, or 500 nM (S)—N-(5-((R)-2-(2,5-difluorophenyl)pyrrolidin-1-yl)pyrazolo[1,5-a]pyrimidin-3-yl)-3-hydroxypyrrolidine-1-c[…]. The Mutations identified by genomic DNA sequencing in the initial screen were validated by cloning the mutation-bearing cDNAs back into Ba/F3 cells to evaluate their sensitivity to (S)—N-(5-((R)-2-(2,5-DIFLUOROPHENYL)PYRROLIDIN-1-YL)PYRAZOLO[1,5-A]PYRIMIDIN-3-YL)-3-HYDROXYPYRROLIDINE-1-C[…] using both proliferation assays and TRK phosphorylation by immunoblot analyses. Modeling of the mutations was performed by mapping of the amino acid substitutions onto a drug-bound TRK kinase domain crystal structure.
Ba/F3 cells stably expressing MPRIP-NTRK1 or TRIM24-NTRK2 were treated overnight with […] N-Ethyl-N-nitrosourea (ENU), pelleted, resuspended in fresh media, and distributed in 96-well plates in 200 μL media supplemented with (S)—N-(5-((R)-2-(2,5-DIFLUOROPHENYL)PYRROLIDIN-1-YL)PYRAZOLO[1,5-A]PYRIMIDIN-3-YL)-3-HYDROXYPYRROLIDINE-1-C[…] (100, 250, and 500 nM). […]

TrkA G595R = TrkA G595R (Homo sapiens, UniProt P04629, G595R); assay: Trk enzyme assay ([33P] incorporation into poly-EAY); assay type: biochemical; conditions: mutant TrkA G595R enzyme; 22° C., 60 minutes
Chain of TrkA G595R (P04629 33-796 G595R): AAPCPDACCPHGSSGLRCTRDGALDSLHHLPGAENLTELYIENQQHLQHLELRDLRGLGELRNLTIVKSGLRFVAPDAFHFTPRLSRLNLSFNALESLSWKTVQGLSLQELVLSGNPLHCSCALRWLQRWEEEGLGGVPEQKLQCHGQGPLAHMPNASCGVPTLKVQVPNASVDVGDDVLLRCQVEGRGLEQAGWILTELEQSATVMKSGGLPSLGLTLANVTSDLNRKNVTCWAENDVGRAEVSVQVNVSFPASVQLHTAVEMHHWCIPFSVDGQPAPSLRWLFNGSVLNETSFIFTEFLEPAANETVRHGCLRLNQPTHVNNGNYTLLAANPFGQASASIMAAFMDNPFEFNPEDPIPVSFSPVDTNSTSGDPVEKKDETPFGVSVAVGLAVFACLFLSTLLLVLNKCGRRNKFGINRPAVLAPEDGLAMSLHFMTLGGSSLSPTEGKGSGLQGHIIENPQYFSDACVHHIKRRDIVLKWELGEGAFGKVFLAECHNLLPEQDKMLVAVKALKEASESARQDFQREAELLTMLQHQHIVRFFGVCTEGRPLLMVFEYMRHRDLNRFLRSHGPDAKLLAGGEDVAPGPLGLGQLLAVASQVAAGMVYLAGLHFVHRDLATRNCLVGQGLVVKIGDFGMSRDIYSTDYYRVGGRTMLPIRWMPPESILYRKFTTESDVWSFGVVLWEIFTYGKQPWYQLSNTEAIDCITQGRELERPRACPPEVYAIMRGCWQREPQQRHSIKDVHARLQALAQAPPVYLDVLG
Procedure: (§1) The activity of the various Trk compounds exemplified in Table 6 was determined by monitoring the incorporation of [^33P]PO4 from [γ-^33P]ATP into poly-EAY (Sigma-Aldrich, P3899).
(§2) The assays were conducted in 96-well polypropylene v-bottom microtitre plates (Corning, Costar® 3363) in a total volume of 50 μL. […] The radiolabeled product was then captured on glass fiber filter plates (PerkinElmer, Unifilter®-96, GF/B®) and washed with 5% phosphoric acid to remove unbound radiolabel using a Tomtec MACH III Harvester 96®. After adding 35 μL/well of Bio-Safe II™ liquid scintillation cocktail (Research Products International), the plates were counted in a TopCount NXT (PerkinElmer) using a counting time of 30 s/well. The activity at each concentration of compound was expressed as percent of control (POC) and plotted versus compound concentration.

TrkB WT = TrkB WT (Homo sapiens, UniProt Q16620); assay: as above; assay type: biochemical; conditions: wild-type TrkB enzyme; 22° C., 60 minutes
Chain of TrkB WT (Q16620 32-822): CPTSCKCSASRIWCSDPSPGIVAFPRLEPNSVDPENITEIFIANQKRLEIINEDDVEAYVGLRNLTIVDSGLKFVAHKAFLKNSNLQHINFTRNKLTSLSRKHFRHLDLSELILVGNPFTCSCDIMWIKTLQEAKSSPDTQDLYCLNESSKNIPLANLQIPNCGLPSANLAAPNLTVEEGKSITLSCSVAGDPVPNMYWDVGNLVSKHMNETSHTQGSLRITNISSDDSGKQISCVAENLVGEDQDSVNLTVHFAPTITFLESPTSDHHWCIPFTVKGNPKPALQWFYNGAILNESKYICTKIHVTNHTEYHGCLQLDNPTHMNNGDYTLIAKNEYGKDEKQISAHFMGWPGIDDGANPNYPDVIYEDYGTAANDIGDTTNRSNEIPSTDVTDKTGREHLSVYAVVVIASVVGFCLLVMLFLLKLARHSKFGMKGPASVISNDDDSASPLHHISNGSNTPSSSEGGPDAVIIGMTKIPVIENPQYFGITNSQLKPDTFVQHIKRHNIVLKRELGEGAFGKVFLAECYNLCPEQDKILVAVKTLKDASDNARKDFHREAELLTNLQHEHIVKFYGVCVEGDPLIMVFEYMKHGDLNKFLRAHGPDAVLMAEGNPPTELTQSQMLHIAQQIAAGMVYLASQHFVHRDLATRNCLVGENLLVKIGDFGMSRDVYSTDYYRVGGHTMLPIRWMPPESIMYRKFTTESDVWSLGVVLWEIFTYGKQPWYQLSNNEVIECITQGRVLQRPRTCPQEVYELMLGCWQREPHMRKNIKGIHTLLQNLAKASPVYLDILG
Procedure: as §2

TrkA G667C = TrkA G667C (Homo sapiens, UniProt P04629, G667C); assay: as above; assay type: biochemical; conditions: mutant TrkA G667C enzyme; 22° C., 60 minutes
Chain of TrkA G667C (P04629 33-796 G667C): as the sequence (P04629 33-796 G595R) above, with R563G, G635C counted along it
Procedure: as §1, §2

TrkC WT = TrkC WT (Homo sapiens, UniProt Q16288, S70N); assay: as above; assay type: biochemical; conditions: wild-type TrkC enzyme; 22° C., 60 minutes
Chain of TrkC WT (Q16288 32-839 S70N): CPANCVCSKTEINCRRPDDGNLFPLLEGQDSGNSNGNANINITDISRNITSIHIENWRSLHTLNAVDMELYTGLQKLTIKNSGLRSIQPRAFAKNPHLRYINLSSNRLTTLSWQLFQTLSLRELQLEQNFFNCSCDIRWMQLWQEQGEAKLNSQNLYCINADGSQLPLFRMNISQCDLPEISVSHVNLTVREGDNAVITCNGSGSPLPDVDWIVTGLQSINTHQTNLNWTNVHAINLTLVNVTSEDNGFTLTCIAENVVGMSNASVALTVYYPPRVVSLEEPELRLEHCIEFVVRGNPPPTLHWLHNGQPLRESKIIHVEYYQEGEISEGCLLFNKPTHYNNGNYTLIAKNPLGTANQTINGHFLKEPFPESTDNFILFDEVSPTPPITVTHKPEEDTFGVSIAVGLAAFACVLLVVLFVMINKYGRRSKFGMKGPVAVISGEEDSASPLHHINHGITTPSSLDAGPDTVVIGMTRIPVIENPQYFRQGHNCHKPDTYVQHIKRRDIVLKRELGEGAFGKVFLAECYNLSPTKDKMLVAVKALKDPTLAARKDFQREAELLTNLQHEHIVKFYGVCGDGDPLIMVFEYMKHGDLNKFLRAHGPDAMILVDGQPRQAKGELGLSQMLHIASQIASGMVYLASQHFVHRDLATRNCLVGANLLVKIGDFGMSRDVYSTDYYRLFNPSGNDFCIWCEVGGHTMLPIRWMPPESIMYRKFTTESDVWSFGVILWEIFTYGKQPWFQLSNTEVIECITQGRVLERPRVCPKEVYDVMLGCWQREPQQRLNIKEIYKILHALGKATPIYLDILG
Procedure: as §2

TrkC G623R = TrkC G623R (Homo sapiens, UniProt Q16288, G623R/S70N); assay: as above; assay type: biochemical; conditions: mutant TrkC G623R enzyme; 22° C., 60 minutes
Chain of TrkC G623R (Q16288 32-839 S70N/G623R): as the sequence (Q16288 32-839 S70N) above, with G592R counted along it
Procedure: The radiolabeled product was then captured on glass fiber filter plates (PerkinElmer, Unifilter®-96, GF/B®) and washed with 5% phosphoric acid to remove unbound radiolabel using a Tomtec MACH III Harvester 96®. After adding 35 μL/well of Bio-Safe II™ liquid scintillation cocktail (Research Products International), the plates were counted in a TopCount NXT (PerkinElmer) using a counting time of 30 s/well. The activity at each concentration of compound was expressed as percent of control (POC) and plotted versus compound concentration.

TrkA WT = TrkA WT (Homo sapiens, UniProt P04629); assay: as above; assay type: biochemical; conditions: wild-type TrkA enzyme; 22° C., 60 minutes
Chain of TrkA WT (P04629 33-796): as the sequence (P04629 33-796 G595R) above, with R563G counted along it
Procedure: as §2

TrkC F617L = TrkC F617L (Homo sapiens, UniProt Q16288, F617L/S70N); assay: as above; assay type: biochemical; conditions: mutant TrkC F617L enzyme; 22° C., 60 minutes
Chain of TrkC F617L (Q16288 32-839 S70N/F617L): as the sequence (Q16288 32-839 S70N) above, with F586L counted along it
Procedure: as §2

TrkA G667S = TrkA G667S (Homo sapiens, UniProt P04629, G667S); assay: as above; assay type: biochemical; conditions: mutant TrkA G667S enzyme; 22° C., 60 minutes
Chain of TrkA G667S (P04629 33-796 G667S): as the sequence (P04629 33-796 G595R) above, with R563G, G635S counted along it
Procedure: as §1, §2

TrkA V573M = TrkA V573M (Homo sapiens, UniProt P04629, V573M); assay: as above; assay type: biochemical; conditions: mutant TrkA V573M enzyme; 22° C., 60 minutes
Chain of TrkA V573M (P04629 33-796 V573M): as the sequence (P04629 33-796 G595R) above, with V541M, R563G counted along it
Procedure: as §1, §2

TrkB G623R = TrkB G623R (Homo sapiens, UniProt Q16620, G623R); assay: as above; assay type: biochemical; conditions: mutant TrkB G623R enzyme; 22° C., 60 minutes
Chain of TrkB G623R (Q16620 32-822 G623R): as the sequence (Q16620 32-822) above, with G592R counted along it
Procedure: as §2

TrkA F589L = TrkA F589L (Homo sapiens, UniProt P04629, F589L); assay: as above; assay type: biochemical; conditions: mutant TrkA F589L enzyme; 22° C., 60 minutes
Chain of TrkA F589L (P04629 33-796 F589L): as the sequence (P04629 33-796 G595R) above, with F557L, R563G counted along it
Procedure: as §1, §2

O=C(Nc1cnn2ccc(N3CCC[C@@H]3c3cc(F)ccc3F)nc12)N1CC[C@H](O)C1 [(S)—N-(5-((R)-2-(2,5-difluorophenyl)pyrrolidin-1-yl)pyrazolo[1,5-a]pyrimidin-3-yl)-3-hydroxypyrrolidine-1-carboxamide sulfate]
resistance of cancer cells having a MPRIP-NTRK1 point mutation (POC, FIG. 4) ([1]; Example 1, F600L, Y676S): increased resistance | resistance of cancer cells having a MPRIP-NTRK1 point mutation (percent of control, FIG. 7) ([1]; Example 3): increased resistance | TRKB and ERK1/2 activation, sensitivity to inhibition (FIG. 11) ([2]; NIH3T3 cells expressing TRIM24-NTRK2 V601G, G623S or R630K fusions): resistant | TRKB and ERK1/2 activation, sensitivity to inhibition (FIG. 11) ([2]; NIH3T3 cells expressing TRIM24-NTRK2 WT fusion): sensitive | TRKA and ERK1/2 activation, sensitivity to inhibition (FIG. 8) ([3]; NIH3T3 cells expressing MPRIP-NTRK1 V573M, F589L or G667S fusions): resistant | TRKA and ERK1/2 activation, sensitivity to inhibition (FIG. 8) ([3]; NIH3T3 cells expressing MPRIP-NTRK1 WT fusion): sensitive | resistance of cancer cells having a TRIM24-NTRK2 point mutation (percent of control, FIG. 10) [4]: increased resistance

O=C1NCCCOc2cccc(n2)[C@H]2CCCN2c2ccn3ncc1c3n2 [Compound 20, (6R)-12-oxa-2,16,20,21,24,26-hexaazapentacyclo[16.5.2.^17,11.0^2,6.0^21,25]-hexacosa-1(24),7(26),8,10,18(25),19,22-heptaen-17-one]
IC50 (TrkA G595R): 2.7 nM | IC50 (TrkB WT): 3.1 nM | IC50 (TrkA G667C): 13.3 nM | IC50 (TrkC WT): < 2.5 nM | IC50 (TrkC G623R): 3.1 nM | IC50 (TrkA WT): < 0.5 nM | IC50 (TrkC F617L): 18.3 nM | IC50 (TrkA G667S): 3.2 nM | IC50 (TrkA V573M): 36.5 nM | IC50 (TrkB G623R): 3.1 nM | IC50 (TrkA F589L): 48.3 nM

CC1(O)CN(C(=O)Nc2cnn3ccc(N4CCC[C@@H]4c4cc(F)ccc4Cl)nc23)C1 [Compound 10, (R)-N-(5-(2-(2-chloro-5-fluorophenyl)pyrrolidin-1-yl)pyrazolo[1,5-a]pyrimidin-3-yl)-3-hydroxy-3-methylazetidine-1-carboxamide]
IC50 (TrkA G595R): 107 nM | IC50 (TrkB WT): 6.5 nM | IC50 (TrkA G667C): 89.2 nM | IC50 (TrkC WT): < 2.5 nM | IC50 (TrkC G623R): 101 nM | IC50 (TrkA WT): 0.9 nM | IC50 (TrkC F617L): 80.1 nM | IC50 (TrkA G667S): 27 nM | IC50 (TrkA V573M): 105 nM | IC50 (TrkB G623R): 150 nM | IC50 (TrkA F589L): 103 nM

O=C(Nc1cnn2ccc(N3CCC[C@@H]3c3cccc(F)c3)nc12)N1CC(O)C1 [Compound 11, (R)-N-(5-(2-(3-fluorophenyl)pyrrolidin-1-yl)pyrazolo[1,5-a]pyrimidin-3-yl)-3-hydroxyazetidine-1-carboxamide]
IC50 (TrkA G595R): 561 nM | IC50 (TrkB WT): 19 nM | IC50 (TrkA G667C): 830 nM | IC50 (TrkC WT): 4.4 nM | IC50 (TrkC G623R): 446 nM | IC50 (TrkA WT): 6.9 nM | IC50 (TrkC F617L): 476 nM | IC50 (TrkA G667S): 275 nM | IC50 (TrkA V573M): 1200 nM | IC50 (TrkB G623R): 671 nM | IC50 (TrkA F589L): 1080 nM

CONC(=O)c1cnn2ccc(N3CCC[C@@H]3c3cc(F)cnc3OC)nc12 [Compound 14, (R)-5-(2-(5-fluoro-2-methoxypyridin-3-yl)pyrrolidin-1-yl)-N-methoxy-pyrazolo[1,5-a]pyrimidine-3-carboxamide]
IC50 (TrkA G595R): 1.5 nM | IC50 (TrkB WT): 4.4 nM | IC50 (TrkA G667C): 9 nM | IC50 (TrkC WT): < 2.5 nM | IC50 (TrkC G623R): 2.7 nM | IC50 (TrkA WT): < 0.5 nM | IC50 (TrkC F617L): 12.4 nM | IC50 (TrkA G667S): 2.8 nM | IC50 (TrkA V573M): 12.1 nM | IC50 (TrkB G623R): 1.5 nM | IC50 (TrkA F589L): 14.8 nM

CC1(NC(=O)c2cnn3ccc(N4CCC[C@@H]4c4cncc(F)c4)nc23)CC1 [Compound 15, (R)-5-(2-(5-fluoropyridin-3-yl)pyrrolidin-1-yl)-N-(1-methylcyclopropyl)pyrazolo [1,5-a]pyrimidine-3-carboxamide]
IC50 (TrkA G595R): 1.6 nM | IC50 (TrkB WT): < 2.5 nM | IC50 (TrkA G667C): 8.1 nM | IC50 (TrkC WT): < 2.5 nM | IC50 (TrkC G623R): 1.7 nM | IC50 (TrkA WT): < 0.5 nM | IC50 (TrkC F617L): < 5 nM | IC50 (TrkA G667S): 1.4 nM | IC50 (TrkA V573M): 6.3 nM | IC50 (TrkB G623R): 1.6 nM | IC50 (TrkA F589L): 7.3 nM

CC1(C)CNC(=O)c2cnn3ccc(nc23)N2CCC[C@@H]2c2cc(F)cnc2OC1 [Compound 25, (6R)-9-fluoro-15,15-dimethyl-13-oxa-2,11,17,21,22,25-hexaazapentacyclo [17,5.2.0^2,6.0^7,12.0^22,26]hexacosa-1(25),7,9,11,19(26),20,23-heptaen-18-one]
IC50 (TrkA G595R): 3 nM | IC50 (TrkB WT): 8.7 nM | IC50 (TrkA G667C): 1 nM | IC50 (TrkC WT): 4 nM | IC50 (TrkC G623R): 4.7 nM | IC50 (TrkA WT): 1 nM | IC50 (TrkC F617L): 8.1 nM | IC50 (TrkA G667S): 0.5 nM | IC50 (TrkA V573M): < 5 nM | IC50 (TrkB G623R): 2.3 nM | IC50 (TrkA F589L): 1.1 nM

C[C@H]1CNC(=O)c2cnn3ccc(nc23)N2CCC[C@@H]2c2cc(F)cn(c2=O)C1 [Compound 24, (6R,13S)-9-fluoro-13-methyl-2,11,15, 19,20,23-hexaazapentacyclo [15.5.2.^17,11.0^2,6.0^20,24]pentacosa-1(23),7,9,17(24),18,21-hexaene-16,25-dione]
IC50 (TrkA G595R): 3.3 nM | IC50 (TrkB WT): 4.7 nM | IC50 (TrkA G667C): 22.3 nM | IC50 (TrkC WT): < 2.5 nM | IC50 (TrkC G623R): 4.5 nM | IC50 (TrkA WT): 0.5 nM | IC50 (TrkC F617L): 61.9 nM | IC50 (TrkA G667S): 4.7 nM | IC50 (TrkA V573M): 38.3 nM | IC50 (TrkB G623R): 4.2 nM | IC50 (TrkA F589L): 86.8 nM

O=C1NCCCOc2ncc(F)cc2[C@H]2CCCN2c2ccn3ncc1c3n2 [Compound 16, (6R)-9-fluoro-13-oxa-2,11,17,21,22,25-hexaazapentacyclo[17.5.2.0^2,6.0^7,12.0^22,26]-hexacosa-1(25),7,9,11,19(26),20,23-heptaen-18-one]
IC50 (TrkA G595R): 0.9 nM | IC50 (TrkB WT): 2.9 nM | IC50 (TrkA G667C): 1.1 nM | IC50 (TrkC WT): < 2.5 nM | IC50 (TrkC G623R): 1.3 nM | IC50 (TrkA WT): < 0.5 nM | IC50 (TrkC F617L): < 5 nM | IC50 (TrkA G667S): 0.4 nM | IC50 (TrkA V573M): < 5 nM | IC50 (TrkB G623R): 0.9 nM | IC50 (TrkA F589L): < 1 nM

Source: patent publication US10370727B2, “Point mutations in TRK inhibitor-resistant cancer and methods relating to the same” (Loxo Oncology, Inc., priority 2015, dated 2019)
